Here are results for three compounds from patent US8754057B2, “Inhibition of apoptosis-specific eIF-5A(eIF-5A1″) with antisense oligonucleotides and siRNA as anti-inflammatory therapeutics” (Senesco Technologies, Inc., priority 2003, dated 2014).

Each structure is given as a SMILES string.

The test system of one assay is U937 cells. In words: Induction of macrophage differentiation in U937 cells. In kind it is cell-based, human. The settings on record: 100 ng/ml PMA, 48 h. The protocol:
(§1) U937 cells were collected and counted 16 hours after electroporation. 200,000 cells in 1 ml of media were added to each well of 24-well plates. Macrophage differentiation was stimulated by adding phorbol 12-myristate 13-acetate (PMA; 100 ng/ml). After 48 h with PMA., >80% of the monocytes had transformed from cells in suspension (monocytes) to adherent cells (macrophages). At 48 hours the media and any non-adherent cells were removed and fresh RPMI media with 10% FBS (1 ml per well) was added. The cells were left for 24 hours in fresh media to become quiescent.

Assay [1] has as its system apoptosis-specific eIF-5A. In words: Apoptosis-specific eIF-5A expression in U937 cells with PMA or LPS. In kind it is cell-based, human. The protocol: as §1
72 hours after PMA addition to U937 cells, lipopolysaccharide (LPS; 100 ng/ml; from E. coli, serotype 0111), interferonγ (IFNγ; 100 Units/ml), or a combination of LPS and IFNγ were added to the wells. Samples were collected before stimulator addition (72h), and at various times after addition as outlined in FIG. 108. To collect samples for analysis of cytokine secretion, the media from each well was transferred to clean microcentrifuge tubes and cleared of any debris by centrifugation at 13000×g for 3 mins. The media was stored at −20° C. in 200-250 μl aliquots prior to analysis. […]
The protein concentration in the cell lysates was determined by bicinchoninic acid assays (BCA) with bovine serum albumin used as the standard. […]

For another assay, the system named is corpus luteum. Nature of the assay: DNA laddering in rat corpus luteum after PGF-2α. The settings on record: superovulated rat corpus lutea; 0, 1, or 24 hours after injection. It counts as in vivo. The protocol: The degree of apoptosis was determined by DNA laddering. Genomic DNA was isolated from dispersed corpus lineal cells or from excised corpus luteum tissue using the QIAamp DNA Blood Kit (Qiagen) according to the manufacturer's instructions. Corpus luteum tissue was excised before the induction of apoptosis by treatment with PGF-2α, 1 hour and 24 hours after induction of apoptosis. The isolated DNA was end-labeled by incubating 500 ng of DNA with 0.2 μCi [α-^32P]dCTP, 1 mM Tris, 0.5 mM EDTA, 3 units of Klenow enzyme, and […] each of dATP, dGTP, and dTTP at room temperature for 30 minutes. Unincorporated nucleotides were removed by passing the sample through a 1 ml Sepadex G-50 column according to Sambrook et al. The samples were then resolved by Tris-acetate-EDTA (1.8%) gel electrophoresis. The gel was dried for 30 minutes at room temperature under vacuum and exposed to x-ray film at −80° C. for 24 hours.
In one experiment, the degree of apoptosis in superovulated rat corpus lutea was examined either 0, 1, or 24 hours after injection with PGF-2α. In the 0 hour control, the ovaries were removed without PGF-2α injection. […] In this figure, the top panel is an autoradiograph of the Northern blot probed with the ^32P-dCTP-labeled 3′-untranslated region of rat corpus luteum apoptosis-specific DHS cDNA. The lower panel is the ethidium bromide stained gel of total RNA. […]

Assay [2] deals with apoptosis-specific eIF-5A and DHS. In words: Northern blot of rat corpus luteum RNA after PGF-2α. In kind it is in vivo. The text has this: […] of total RNA isolated from rat corpus luteum at various stages of apoptosis were separated on 1% denatured formaldehyde agarose gels and immobilized on nylon membranes. The full-length rat apoptosis-specific eIF-5A cDNA (SEQ ID NO:1) labeled with ^32P-dCTP using a random primer kit (Boehringer) was used to probe the membranes 7×10^7. Alternatively, full length rat DHS cDNA (SEQ ID NO:6) labeled with ^32P-dCTP using a random primer kit (Boehringer) was used to probe the membranes (7×10^7 cpm). The membranes were washed once with 1×SSC, 0.1% SDS at room temperature and three times with 0.2×SSC, 0.1% SDS at 65° C. The membranes were dried and exposed to X-ray film overnight at −70° C.

For assay [3], the system named is lamina cribrosa cell line #506. In kind it is cell-based, human. The conditions noted are these: confluent LC cells, 48 hours; 50 μM camptothecin, 10 ng/ml TNF-α; Hoescht staining. The protocol: FIG. 83 is a graph showing percent apoptosis of lamina cribrosa cell line #506 in response to treatment with camptothecin and TNF-α. Lamina cribrosa cell line #506 cells were seeded at 40,000 cells per well onto an 8-well culture slide. Three days later the confluent LC cells were treated with either 10 ng/ml TNF-α, 50 μM camptothecin, or 10 ng/ml TNF-α plus 50 μM camptothecin. An equivalent volume of DMSO, a vehicle control for camptothecin, was added to the untreated control cells. The cells were stained with Hoescht 33258 48 hours after treatment and viewed by fluorescence microscopy using a UV filter. Cells with brightly stained condensed or fragmented nuclei were counted as apoptotic.
Apoptosis was induced in lamina cribrosa cells using a combination of 50 μM camptothecin (Sigma) and 10 ng/ml TNF-α (Leinco Technologies).
Since TNF-α is believed to play an important role during the glaucomatous process, the susceptibility of LC cells to the cytotoxic effects of TNF-α was examined. Confluent LC cells were exposed to either camptothecin, TNF-α, or a combination of camptothecin and TNF-α for 48 hours (FIG. 83).

Assay [4] deals with apoptosis-specific eIF-5A. In words: Apoptosis-specific eIF-5A expression in LC cells during camptothecin or TNF-α plus camptothecin treatment. It counts as cell-based, human. The settings on record: LC cells #506; 50 μM camptothecin, 10 ng/ml TNF-α; 1, 4, 8, 24 hours. The protocol: Lamina cribrosa cell #506 cells were seeded at 40,000 cells per well onto a 24-well plate. Three days later the LC cells were treated with either 50 μM camptothecin or 10 ng/ml TNF-α plus 50 μM camptothecin and protein lysate was harvested 1, 4, 8, and 24 hours later. An equivalent volume of DMSO was added to control cells as a vehicle control and cell lysate was harvested 1 and 24 hours later. 5 μg of protein from each sample was separated by SDS-PAGE, transferred to a PVDF membrane, and Western blot with anti-apoptosis-specific eIF-5A antibody. The bound antibody was detected by chemiluminescence and exposed to x-ray film. The membrane was then stripped and re-blotted with anti-β-actin as an internal loading control.
Protein was isolated for Western blotting from lamina cribrosa cells growing on 24-well plates by washing the cells twice in PBS (8 g/L NaCl, 0.2 g/L KCl, 1.44 g/L Na2HPO4, and 0.24 g/L KH2PO4) and then adding 50 μl of lysis buffer [2% SDS, 50 mM Tris-HCl (pH 7.4)]. The cell lysate was collected in a microcentrifuge tube, boiled for 5 minutes and stored at −20° C. until ready for use. Protein concentrations were determined using the Bicinchoninic Acid Kit (BCA; Sigma). For Western blotting, 5 μg of total protein was separated on a 12 SDS-polyacrylamide gel. The separated proteins were transferred to a polyvinylidene difluoride membrane. […]

On to `CCCCCCCCCCCCCC(=O)O[C@@H]1[C@@H](C)[C@@]2(O)[C@@H](C=C(CO)C[C@]3(O)C(=O)C(C)=C[C@@H]23)[C@@H]2C(C)(C)[C@]12OC(C)=O` [PMA, phorbol 12-myristate 13-acetate], for which the “monocytes transformed from cells in suspension to adherent cells (macrophages)” value with U937 cells was over 80%. The “apoptosis-specific eIF-5A expression” value in assay [1] is “upregulated”.

With `CCCCC[C@H](O)/C=C/[C@@H]1[C@@H](C/C=C\CCCC(=O)O)[C@@H](O)C[C@H]1O` [PGF-2α], the “laddering of low molecular weight DNA fragments” value with corpus luteum is “discernible within 1 hour after induction of apoptosis and is pronounced by 24 hours”. In assay [2], the “expression of DHS” value is reported as “increased substantially within 1 hour of treatment” and the “expression of apoptosis-specific eIF-5A” value is “significantly enhanced”.

Consider `CC[C@@]1(O)C(=O)OCc2c1cc1n(c2=O)Cc2cc3ccccc3nc2-1` [camptothecin], for which the “cell death of LC cells” value in assay [3] is “approximately 30%”. Besides, the “expression of apoptosis-specific eIF-5A protein” value in assay [4] is “did not alter significantly”.
